We go through 2 molecules from patent publication US20040014772A1, “Compositions and methods for treating glomerular disorders” (priority 2000, published 2004).

For data set [1], the system named is glomerular epithelial cells GEC. The data set is described as follows: Intracellular H2O2 generation in GEC (DCF fluorescence). Format: cell-based, rat. To be noted: PAN 1.5 mM; CM, PIP, RN or pyruvate 10 mM. As to the method:
The principle of this method is that the oxidation of 2′,7′-dichlorofluorescin-diacetate (DCFH-DA) in the presence of H2O2 produces the highly fluorescent compound 2′,7′-dichlorofluroescin (DCF) which can be measured by fluorometer. The intracellular generation of H2O2 in GEC was tested utilizing the microplate assay procedure described by Rosenkranz et al (J. Immunol. Methods, 1992, 156:39-45.). In brief, confluent GEC were harvested by trypsin and suspended in HBSS. After an equilibration period at 37° C. with constant shaking, they were transferred to a microplate (2×10^5-1×10^6 cells/well) and then incubated at 37° C. with equal volumes of DCFH-DA (10 μl/ml) and PAN (1.5 mM) for the planned time period. At the end of the incubation, the fluorescent intensity of the cell suspension was read using a fluorescence spectrophotometer (wavelength 485/535 nm) capable of reading microtiter plates.

Data set [2] has the same test system. The data set is described as follows: PAN induced hydroxyl radical formation in GEC (deoxyribose degradation). In kind it is cell-based, rat. To be noted: PAN 1.5 mM 1 h; preincubation CM 2 mM, PB 25 μM, RN 1 mM, PIP 0.2 mM, pyruvate 10 mM. As for the experimental part: 2-deoxy-D-ribose in a final concentration of 3 mM was added to the medium just prior to the incubation. At the end of the incubation, the incubation medium was collected for the measurement of hydroxyl radical formation by deoxyribose degradation method as in Baliga et al (Kidney Intl. 1996, 50:1118-1124.).
Confluent GEC monolayer was washed twice with HBSS and then incubated with 1.5 mM PAN in HBSS for a period of time before substantial cell killing occurs (1 h) at 37° C. 2-deoxy-D-ribose in a final concentration of 3 mM was added to the medium just prior to the incubation. At the end of the incubation, the incubation medium was collected for the measurement of hydroxyl radical formation by deoxyribose degradation method described in Baliga et al, 1996, Kidney Int. 50:1118-1124. To determine the effect of CYP inhibitors on the hydroxyl radical formation, GEC monolayers were preincubated with CM, RN or PB as mentioned above.

Another data set deals with CYP2B1. The data set is described as follows: CYP2B1 content in glomeruli (immunohistochemistry, western blot). Format: in vivo, rat. To be noted: PAN-treated rats, 6 hours to day 7. The source says: The microsome fraction obtained was subjected to SDS-page electrophoresis in 1 mm slab gels. The separated forms were transferred from gel to a nitrocellulose sheet using a Mini Trans-blot electroblotting unit. The primary antibodies were monoclonal anti-HO-1 (OSA-111, StressGen, Victoria, BC, Canada) and monoclonal anti-CYP2B1 (PM25, Oxford Biomedical Research, Oxford, Mich., USA). Subsequent to primary and secondary antibody (peroxidase-labeled) treatment, the blots were visualized by enhanced chemiluminescence method. Kidney cortical sections were fixed in 10% buffered formalin for 6 hours and embedded in paraffin. After deparaffinization and antigen retrieval, the sections were immunolabeled and visualized according to an avidin-biotin complex (ABC) method. The primary antibody for detection of ferritin was polyclonal anti-Ferritin (L subunit) antibody (605022; Boehringer Mannheim Corp., Indianapolis, Ind., USA).
(In general: A western blot detects proteins with antibodies after separation by electrophoresis.)

Data set [3] relates to microsomal CYP isolated from GEC. As to the kind of experiment: H2O2 generation and catalytic iron release from microsomes isolated from GEC. The arrangement: H2O2 generation from GEC microsomal fraction: dose or concentration left out as unconfirmed. Format: biochemical, rat. As for the experimental part:
The generation of H2O2 and catalytic iron from microsomal CYP isolated from GEC was also analyzed.

In the next data set the test system is heme oxidase (HO-1). The data set is described as follows: HO-1 induction in kidney of PAN-treated rats (immunohistochemistry, western blot, RT-PCR). Format: in vivo, rat. The source says:
The microsome fraction obtained was subjected to SDS-page electrophoresis in 1 mm slab gels. The separated forms were transferred from gel to a nitrocellulose sheet using a Mini Trans-blot electroblotting unit. The primary antibodies were monoclonal anti-HO-1 (OSA-111, StressGen, Victoria, BC, Canada) and monoclonal anti-CYP2B1 (PM25, Oxford Biomedical Research, Oxford, Mich., USA). Subsequent to primary and secondary antibody (peroxidase-labeled) treatment, the blots were visualized by enhanced chemiluminescence method.
Kidney cortical sections were fixed in 10% buffered formalin for 6 hours and embedded in paraffin. After deparaffinization and antigen retrieval, the sections were immunolabeled and visualized according to an avidin-biotin complex (ABC) method. The primary antibody for detection of ferritin was polyclonal anti-Ferritin (L subunit) antibody (605022; Boehringer Mannheim Corp., Indianapolis, Ind., USA).
RNA was isolated from the kidney cortex using TRIzol Reagant (Gibco, BRL, Gaithersburg, Md., USA). Revers transcription of […] of total RNA was carried out using Moloney murine leukemia virus reverse transcriptase (Gibco, BRL). The resulting first-strand cDNA preparations were used as templates for PCR. HO-1 primer described by Paschen et al (Neurosci Lett, 1994, 180:5-8.) were purchased from Gibco, BRL. The sense primer was: %′-[…]-3′, and the antisense 5′-[…]-3′. […]

The structures appear in SMILES notation. “Also recorded” adds a separate entry of the source.

Consider `CN/C(=N/CCSCc1nc[nH]c1C)NC#N` [CM, cimetidine], for which the “intracellular H2O2 generation in GEC” value in data set [1] was “significantly decreased”. In addition, the “hydroxyl radical formation in GEC” value in data set [2] is reported as “markedly reduce; also recorded: significantly reduced”. Also, the “CYP2B1 content in the glomeruli” value with CYP2B1 was “preserved”.

With `CN(C)c1ncnc2c1ncn2[C@@H]1O[C@H](CO)[C@@H](N)[C@H]1O` [PAN, puromycin aminonucleoside], the “H2O2 generation from GEC microsomal fraction” value in data set [3] (PAN) is “H2O2 generation in a time dependent fashion”. For the same molecule, the “catalytic iron release from GEC microsomal fraction” value in data set [3] (PAN 91.5 mM) as printed) is given as “marked increase”. Besides, the “intracellular H2O2 generation in GEC” value in data set [1] is recorded as “marked increase”. Besides, the “HO-1 induction in the glomeruli and tubules” value in the data set with heme oxidase (HO-1) (PAN-treated rats) was “marked induction”. Besides, the “HO-1 mRNA expression in the kidney” value in the data set on heme oxidase (HO-1) (RT-PCR vs GAPDH, one hour to day 4 after PAN) is reported as “significantly increase”. In data set [2], the “hydroxyl radical formation in GEC” value is on record as “significant increase; also recorded: significant production”. For the same molecule, the “CYP2B1 content in the glomeruli” value in the data set on CYP2B1 is on record as “marked decrease”.
